# Literature values as cited in US5186913A, “Tungsten-188/carrier-free rhenium-188 perrhenic acid generator system” (Martin Marietta Energy Systems, Inc., priority 1991, dated 1993).
# Like-named read-outs stand apart in the source and are kept apart here.
# Legend:
# [1] = not given; remark: listed apart in the source
structure (smiles),measurement,setting,value
"[Re] [Re, Rhenium]",distribution coefficient Dv (amount absorbed per liter resin bed/amount per liter solution),0.1M HNO3,1×10^3
same,distribution coefficient Dv (amount absorbed per liter resin bed/amount per liter solution),6M HNO3,~ 1
"[188Re] [Re-188, Rhenium-188]",energy of gamma photon,[1]; gamma emission,155 keV
same,abundance of gamma photon,[1]; gamma photon of 155 keV,about 15%
same,half-life,[1]; radioactive decay,0.704 days
same,average energy of β emission,[1]; β emission,764 keV
"[188W] [W-188, tungsten-188]",t1/2,"[1]; radioactive decay, parent isotope",69.4 days
